Reference: article PMC7655827, “NeoR, a near-infrared absorbing rhodopsin” (Nature Communications, 2020)

Legend:
Format in all cases: binding
[1] = molecular target: T1, NeoR (RGC3), rhodopsin fragment (Rhizoclosmatium globosum, UniProt A0A1Y2CSJ0, T238A); experiment: UV-Vis absorption and fluorescence of purified protein; settings: 50 mM HEPES pH 7.4, 200 mM NaCl, 0.02% DDM/0.004% CHS; covalent (retinal Schiff base)
T1 construct: gene BCR33DRAFT_847233; rhodopsin domain aa 1-279; C-terminal strepII tag (Sf21) or C-terminal 1D4 tag TETSQVAPA (HEK-T, mutants)
T1 sequence (A0A1Y2CSJ0 entry or part of it T238A): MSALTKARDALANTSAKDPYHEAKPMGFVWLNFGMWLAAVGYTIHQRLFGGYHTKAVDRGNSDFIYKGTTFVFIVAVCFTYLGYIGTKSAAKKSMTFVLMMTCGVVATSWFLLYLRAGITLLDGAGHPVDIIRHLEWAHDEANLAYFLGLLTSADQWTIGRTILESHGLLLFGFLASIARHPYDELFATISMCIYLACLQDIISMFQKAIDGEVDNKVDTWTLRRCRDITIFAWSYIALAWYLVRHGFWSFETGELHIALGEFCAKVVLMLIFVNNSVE

[2] = molecular target: T2, NeoR (RGC3), rhodopsin fragment (Rhizoclosmatium globosum, UniProt A0A1Y2CSJ0, T238P); experiment: as above; settings: 50 mM HEPES pH 7.4, 200 mM NaCl, 0.02% DDM/0.004% CHS; covalent (retinal Schiff base)
T2 construct: gene BCR33DRAFT_847233; rhodopsin domain aa 1-279; C-terminal strepII tag (Sf21) or C-terminal 1D4 tag TETSQVAPA (HEK-T, mutants)
T2 sequence (A0A1Y2CSJ0 entry or part of it T238P): as the sequence (A0A1Y2CSJ0 entry or part of it T238A) above, with A238P counted along it

[3] = molecular target: T3, NeoR (RGC3), rhodopsin fragment (Rhizoclosmatium globosum, UniProt A0A1Y2CSJ0, E262Q); experiment: as above; settings: 50 mM HEPES pH 7.4, 200 mM NaCl, 0.02% DDM/0.004% CHS; covalent (retinal Schiff base)
T3 construct: gene BCR33DRAFT_847233; rhodopsin domain aa 1-279; C-terminal strepII tag (Sf21) or C-terminal 1D4 tag TETSQVAPA (HEK-T, mutants)
T3 sequence (A0A1Y2CSJ0 entry or part of it E262Q): as the sequence (A0A1Y2CSJ0 entry or part of it T238A) above, with A238T, E262Q counted along it

[4] = molecular target: T4, NeoR (RGC3), rhodopsin fragment (Rhizoclosmatium globosum, UniProt A0A1Y2CSJ0); experiment: as above; settings: 50 mM HEPES pH 7.4, 200 mM NaCl, 0.02% DDM/0.004% CHS; covalent (retinal Schiff base)
T4 construct: gene BCR33DRAFT_847233; rhodopsin domain aa 1-279; C-terminal strepII tag (Sf21) or C-terminal 1D4 tag TETSQVAPA (HEK-T, mutants)

[5] = molecular target: T5, NeoR (RGC3), rhodopsin fragment (Rhizoclosmatium globosum, UniProt A0A1Y2CSJ0, S191A); experiment: as above; settings: 50 mM HEPES pH 7.4, 200 mM NaCl, 0.02% DDM/0.004% CHS; covalent (retinal Schiff base)
T5 construct: gene BCR33DRAFT_847233; rhodopsin domain aa 1-279; C-terminal strepII tag (Sf21) or C-terminal 1D4 tag TETSQVAPA (HEK-T, mutants)
T5 sequence (A0A1Y2CSJ0 entry or part of it S191A): as the sequence (A0A1Y2CSJ0 entry or part of it T238A) above, with S191A, A238T counted along it

[6] = molecular target: T6, NeoR (RGC3), rhodopsin fragment (Rhizoclosmatium globosum, UniProt A0A1Y2CSJ0, E136Q); experiment: as above; settings: 50 mM HEPES pH 7.4, 200 mM NaCl, 0.02% DDM/0.004% CHS; covalent (retinal Schiff base)
T6 construct: gene BCR33DRAFT_847233; rhodopsin domain aa 1-279; C-terminal strepII tag (Sf21) or C-terminal 1D4 tag TETSQVAPA (HEK-T, mutants)
T6 sequence (A0A1Y2CSJ0 entry or part of it E136Q): as the sequence (A0A1Y2CSJ0 entry or part of it T238A) above, with E136Q, A238T counted along it

NeoR full-length protein = molecular target: T7, NeoR full-length protein (Rhizoclosmatium globosum, UniProt A0A1Y2CSJ0); experiment: UV-Vis absorption of purified protein; settings: detergent; covalent (retinal Schiff base)
T7 construct: gene BCR33DRAFT_847233; full length aa 1-509, C-terminal His(8) tag, Sf21 insect cells
T7 sequence (A0A1Y2CSJ0 1-509): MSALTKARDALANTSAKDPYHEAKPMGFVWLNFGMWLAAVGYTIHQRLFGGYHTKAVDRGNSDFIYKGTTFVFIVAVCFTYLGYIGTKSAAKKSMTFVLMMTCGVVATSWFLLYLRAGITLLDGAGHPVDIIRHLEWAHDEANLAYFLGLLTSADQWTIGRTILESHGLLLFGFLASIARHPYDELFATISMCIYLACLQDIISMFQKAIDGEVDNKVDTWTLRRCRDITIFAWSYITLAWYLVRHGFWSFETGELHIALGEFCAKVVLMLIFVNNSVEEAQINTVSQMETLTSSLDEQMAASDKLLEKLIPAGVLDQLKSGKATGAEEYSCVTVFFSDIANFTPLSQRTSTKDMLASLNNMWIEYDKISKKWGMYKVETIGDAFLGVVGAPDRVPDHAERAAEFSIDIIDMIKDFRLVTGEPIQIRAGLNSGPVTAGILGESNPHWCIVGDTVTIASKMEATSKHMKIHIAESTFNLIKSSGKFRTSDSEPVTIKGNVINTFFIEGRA

SMILES: CC1=C(/C=C/C(C)=C/C=C/C(C)=C/C=O)C(C)(C)CCC1 [all-trans retinal]
- UV-Vis absorption and fluorescence of purified protein [1]: achieved by mutation of S191A and T238P/A, which are located near the β-ionone ring
- UV-Vis absorption and fluorescence of purified protein [2]: achieved by mutation of S191A and T238P/A, which are located near the β-ionone ring
- UV-Vis absorption and fluorescence of purified protein [3]: Mutation of either one of these to Gln results in chromophore deprotonation
- UV-Vis absorption and fluorescence of purified protein [4]: in the absence of retinal no functional rhodopsin was produced when recombinant NeoR was expressed
- UV-Vis absorption and fluorescence of purified protein [5]: achieved by mutation of S191A and T238P/A, which are located near the β-ionone ring
- UV-Vis absorption and fluorescence of purified protein [6]: Mutation of either one of these to Gln results in chromophore deprotonation
- UV-Vis absorption of purified protein (NeoR full-length protein): The spectral properties are similar for the NeoR full-length protein and the rhodopsin fragment
